Test results reported in the supplement of paper PMC10307832.

Tests used:
Experiment in all cases: relative viability (nuclei count vs DMSO), 5 days (fraction); higher = more cells survive
Palbociclib + Pemetrexed = compound: CC(=O)c1c(C)c2cnc(Nc3ccc(N4CCNCC4)cn3)nc2n(C2CCCC2)c1=O [Palbociclib] + Nc1nc2[nH]cc(CCc3ccc(C(=O)N[C@@H](CCC(=O)O)C(=O)O)cc3)c2c(=O)[nH]1 [Pemetrexed] (partner 0.2 µM)
How it was run: (§1)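 Lung cancer cell lines were seeded in 1536-well plates and dosed by pin tool the next day, with either a single drug or a fixed anchor-drug dose combined with five library-drug doses (not always all listed) spaced in √10 steps. Five days later, one step fixed the cells and stained their nuclei (final 0.05% Triton X-100, 1% formaldehyde, 1 ug/ml Hoechst), and nuclei were counted on 4× images. Relative viability is the nuclei count in treated wells divided by the count in vehicle wells, and each value is the median of duplicate plates.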

Palbociclib + Phenformin = compound: CC(=O)c1c(C)c2cnc(Nc3ccc(N4CCNCC4)cn3)nc2n(C2CCCC2)c1=O [Palbociclib] + N=C(N)NC(=N)NCCc1ccccc1 [Phenformin] (partner 250 µM)
How it was run: as §1

Palbociclib + AZD7762 = compound: CC(=O)c1c(C)c2cnc(Nc3ccc(N4CCNCC4)cn3)nc2n(C2CCCC2)c1=O [Palbociclib] + NC(=O)Nc1cc(-c2cccc(F)c2)sc1C(=O)N[C@H]1CCCNC1 [AZD7762] (partner 0.2 µM)
How it was run: as §1

Palbociclib + Decitabine = compound: CC(=O)c1c(C)c2cnc(Nc3ccc(N4CCNCC4)cn3)nc2n(C2CCCC2)c1=O [Palbociclib] + Nc1ncn([C@H]2C[C@H](O)[C@@H](CO)O2)c(=O)n1 [Decitabine] (partner 2 µM)
How it was run: as §1

| Cell Line | relative viability (Palbociclib + Pemetrexed; first compound 0.01 µM) | relative viability (Palbociclib + Pemetrexed; first compound 0.03162 µM) | relative viability (Palbociclib + Pemetrexed; first compound 0.1 µM) | relative viability (Palbociclib + Pemetrexed; first compound 0.3162 µM) | relative viability (Palbociclib + Pemetrexed; first compound 1 µM) | relative viability (Palbociclib + Phenformin; first compound 0.01 µM) | relative viability (Palbociclib + Phenformin; first compound 0.03162 µM) | relative viability (Palbociclib + Phenformin; first compound 0.1 µM) | relative viability (Palbociclib + Phenformin; first compound 0.3162 µM) | relative viability (Palbociclib + Phenformin; first compound 1 µM) | relative viability (Palbociclib + AZD7762; first compound 0.01 µM) | relative viability (Palbociclib + AZD7762; first compound 0.03162 µM) | relative viability (Palbociclib + AZD7762; first compound 0.1 µM) | relative viability (Palbociclib + AZD7762; first compound 0.3162 µM) | relative viability (Palbociclib + AZD7762; first compound 1 µM) | relative viability (Palbociclib + Decitabine; first compound 0.01 µM) | relative viability (Palbociclib + Decitabine; first compound 0.03162 µM) | relative viability (Palbociclib + Decitabine; first compound 0.1 µM) | relative viability (Palbociclib + Decitabine; first compound 0.3162 µM) | relative viability (Palbociclib + Decitabine; first compound 1 µM) |
| --- | --- | --- | --- | --- | --- | --- | --- | --- | --- | --- | --- | --- | --- | --- | --- | --- | --- | --- | --- | --- |
| NCI-H1993 | 0.681 | 0.649 | 0.482 | 0.512 | 0.54 | 0.467 | 0.474 | 0.464 | 0.445 | 0.556 | 0.748 | 0.646 | 0.575 | 0.632 | 0.528 | 0.61 | 0.588 | 0.606 | 0.507 | 0.555 |
| NCI-H650 | 0.946 |  | 0.7 | 0.725 | 0.483 | 0.447 | 0.371 | 0.403 | 0.352 | 0.316 | 0.949 |  | 0.978 | 0.921 | 0.686 | 0.305 |  | 0.31 | 0.306 | 0.354 |
| LXF-289 | 0.887 | 0.733 | 0.793 | 0.793 | 0.681 | 0.51 | 0.294 | 0.452 | 0.462 | 0.378 | 1.03 | 0.692 | 1.06 | 0.96 | 0.779 | 0.367 | 0.405 | 0.411 | 0.363 | 0.422 |
| LK-2 | 0.283 | 0.175 | 0.205 | 0.205 | 0.238 | 0.507 |  | 0.305 | 0.309 | 0.38 | 0.472 | 0.297 | 0.374 | 0.338 | 0.303 | 0.299 | 0.213 | 0.333 | 0.324 | 0.283 |
| BEN | 0.894 | 0.596 | 0.609 | 0.585 | 0.38 | 0.285 | 0.243 | 0.237 | 0.249 | 0.257 | 0.826 | 0.604 | 0.583 | 0.567 | 0.388 | 0.692 | 0.521 | 0.596 | 0.68 | 0.422 |
| NCI-H2087 | 0.683 | 0.664 | 0.621 | 0.537 | 0.393 | 0.449 |  | 0.291 | 0.229 | 0.189 | 1.18 | 1.16 | 1.03 | 0.902 | 0.641 | 0.234 | 0.272 | 0.2 | 0.228 | 0.171 |
| LCLC-97TM1 | 0.201 |  | 0.168 | 0.156 | 0.167 | 0.41 | 0.32 | 0.414 | 0.351 | 0.227 | 0.391 |  | 0.252 | 0.199 | 0.152 | 0.23 |  | 0.231 | 0.239 | 0.198 |
| PC-14 | 0.143 | 0.142 | 0.137 | 0.148 | 0.158 | 0.817 |  | 0.549 | 0.528 | 0.282 | 0.453 | 0.349 | 0.277 | 0.289 | 0.16 | 0.329 | 0.217 | 0.224 | 0.27 | 0.205 |
| LC-2-ad | 0.271 | 0.289 | 0.318 | 0.392 | 0.363 | 0.573 |  | 0.523 | 0.414 | 0.383 | 0.886 | 0.692 | 0.734 | 0.702 | 0.513 | 0.82 | 0.781 | 0.758 | 0.691 | 0.756 |
| NCI-H1915 | 0.494 |  | 0.446 | 0.413 | 0.331 | 0.365 | 0.308 | 0.37 | 0.346 | 0.323 | 0.685 |  | 0.718 | 0.649 | 0.608 | 0.277 |  | 0.254 | 0.254 | 0.26 |
| EPLC-272H | 0.278 | 0.322 | 0.408 | 0.539 | 0.512 | 0.316 |  | 0.265 | 0.291 | 0.198 | 0.306 |  | 0.383 | 0.251 | 0.274 | 0.4 |  | 0.322 | 0.309 | 0.324 |
| NCI-H322M | 0.604 | 0.499 | 0.651 | 0.573 | 0.362 | 0.741 | 0.605 | 0.553 | 0.502 | 0.409 | 0.59 | 0.572 | 0.524 | 0.507 | 0.451 | 0.691 | 0.654 | 0.674 | 0.654 | 0.521 |
| NCI-H1437 | 0.33 | 0.338 | 0.339 | 0.33 | 0.269 | 0.321 | 0.445 | 0.258 | 0.237 | 0.199 | 1.15 | 1.09 | 1.03 | 1.09 | 0.73 | 0.582 | 0.551 | 0.569 | 0.494 | 0.408 |
| ChaGo-K-1 | 0.259 |  | 0.261 | 0.257 | 0.26 | 0.484 | 0.376 | 0.503 | 0.458 | 0.524 | 0.885 |  | 0.867 | 0.905 | 0.861 | 0.517 |  | 0.554 | 0.522 | 0.518 |
| NCI-H1734 | 0.423 | 0.466 | 0.404 | 0.407 | 0.4 | 0.435 | 0.337 | 0.307 | 0.286 | 0.247 | 0.53 | 0.417 | 0.454 | 0.453 | 0.356 | 0.46 | 0.524 | 0.539 | 0.461 | 0.43 |
| EMC-BAC-2 | 0.449 | 0.476 | 0.427 | 0.417 | 0.428 | 0.537 | 0.394 | 0.401 | 0.374 | 0.342 | 1.13 | 0.935 | 0.955 | 1.02 | 0.713 | 1.02 | 0.818 | 0.869 | 0.783 | 0.604 |
| NCI-H2170 | 0.269 | 0.277 | 0.224 | 0.242 | 0.222 | 0.418 | 0.352 | 0.351 | 0.34 | 0.304 | 0.925 | 0.736 | 0.875 | 0.773 | 0.514 | 0.503 | 0.478 | 0.446 | 0.477 | 0.45 |
